Source: patent publication US20160297830A1, “NOVEL COMPOUNDS USEFUL FOR THE TREATMENT OF BACTERIAL INFECTIOUS DISEASES” (GALAPAGOS NV, priority 2013, published 2016)
Converted amounts (≈) assume the structure as drawn. Like-named read-outs stand apart in the source and are kept apart here.

Assays:
[1] = test system: Methicillin Resistant S. aureus (MRSA); test: Neutropenic mouse thigh infection model; conditions: Thigh Sa
[2] = test system: Methicillin Resistant S. aureus Sa2 (MRSA); type: in vivo; conditions: Groin Sa, Study 1, sample time 31 h post infection
[3] = test system: H. influenza Hi10 clinical strain; test: organism not typed; type: cell-based; conditions: read-out: MIC Hi10
DNA III Polymerase E = DNA III Polymerase E (Escherichia coli, UniProt P10443); test: In vitro activity against DNA III Polymerase E, E. coli; type: biochemical; conditions: DNA polymerase III, E. coli; read-out: IC50 semiquantitative scoring, E. coli
Chain of DNA III Polymerase E (P10443 whole entry): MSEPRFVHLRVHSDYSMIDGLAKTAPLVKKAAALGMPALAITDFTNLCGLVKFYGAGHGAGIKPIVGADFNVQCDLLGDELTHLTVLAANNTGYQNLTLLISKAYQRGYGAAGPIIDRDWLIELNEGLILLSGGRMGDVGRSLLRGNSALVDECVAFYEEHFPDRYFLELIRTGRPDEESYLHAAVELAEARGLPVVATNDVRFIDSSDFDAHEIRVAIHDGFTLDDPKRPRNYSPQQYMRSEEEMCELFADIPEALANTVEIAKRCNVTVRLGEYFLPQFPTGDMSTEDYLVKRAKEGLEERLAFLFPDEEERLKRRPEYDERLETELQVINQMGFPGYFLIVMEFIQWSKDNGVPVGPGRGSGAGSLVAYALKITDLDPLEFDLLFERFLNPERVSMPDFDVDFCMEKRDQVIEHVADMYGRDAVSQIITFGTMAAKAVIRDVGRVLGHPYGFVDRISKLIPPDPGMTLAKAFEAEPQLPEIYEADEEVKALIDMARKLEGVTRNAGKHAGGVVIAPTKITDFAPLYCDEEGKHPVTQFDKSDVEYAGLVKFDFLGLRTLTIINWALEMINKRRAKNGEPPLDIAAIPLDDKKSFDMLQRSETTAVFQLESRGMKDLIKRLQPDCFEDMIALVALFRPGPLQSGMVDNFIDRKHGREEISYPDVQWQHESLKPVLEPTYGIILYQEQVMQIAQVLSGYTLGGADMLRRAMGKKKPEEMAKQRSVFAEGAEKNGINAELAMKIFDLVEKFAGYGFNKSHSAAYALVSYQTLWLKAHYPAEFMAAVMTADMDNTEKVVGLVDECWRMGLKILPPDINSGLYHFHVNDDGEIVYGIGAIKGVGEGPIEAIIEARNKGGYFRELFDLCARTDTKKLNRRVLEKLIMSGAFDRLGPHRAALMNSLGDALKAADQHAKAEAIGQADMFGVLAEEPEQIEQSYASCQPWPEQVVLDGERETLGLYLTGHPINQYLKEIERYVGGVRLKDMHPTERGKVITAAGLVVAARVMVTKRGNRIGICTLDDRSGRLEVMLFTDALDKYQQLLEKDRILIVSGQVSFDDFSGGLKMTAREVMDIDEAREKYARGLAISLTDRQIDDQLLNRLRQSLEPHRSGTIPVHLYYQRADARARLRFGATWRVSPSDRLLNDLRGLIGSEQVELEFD
How it was run: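 Recombinant enzyme (0.47 μg/mL diluted stock) in 20 mM Tris pH7.5, 8 mM DTT, 10 mM MgOAc, 0.05% CHAPS met compound series from 100 μM top, 1/5 steps. Activated calf thymus DNA, dNTPs and [α-33P]-dTTP substrate were added, and incubation ran 120 min at 30° C. IC50 came from filter-captured incorporated radioactivity versus controls.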

[4] = test system: H. influenza Hi106 ATCC 51907; test: organism not typed; type: cell-based; conditions: read-out: MIC Hi106
[5] = molecular target: DNA Polymerase IIIα (DnaE) from Staphylococcus aureus (Staphylococcus aureus, UniProt Q6GG04); test: biochemical
Chain of DNA Polymerase IIIα (DnaE) from Staphylococcus aureus (Q6GG04 1-1022): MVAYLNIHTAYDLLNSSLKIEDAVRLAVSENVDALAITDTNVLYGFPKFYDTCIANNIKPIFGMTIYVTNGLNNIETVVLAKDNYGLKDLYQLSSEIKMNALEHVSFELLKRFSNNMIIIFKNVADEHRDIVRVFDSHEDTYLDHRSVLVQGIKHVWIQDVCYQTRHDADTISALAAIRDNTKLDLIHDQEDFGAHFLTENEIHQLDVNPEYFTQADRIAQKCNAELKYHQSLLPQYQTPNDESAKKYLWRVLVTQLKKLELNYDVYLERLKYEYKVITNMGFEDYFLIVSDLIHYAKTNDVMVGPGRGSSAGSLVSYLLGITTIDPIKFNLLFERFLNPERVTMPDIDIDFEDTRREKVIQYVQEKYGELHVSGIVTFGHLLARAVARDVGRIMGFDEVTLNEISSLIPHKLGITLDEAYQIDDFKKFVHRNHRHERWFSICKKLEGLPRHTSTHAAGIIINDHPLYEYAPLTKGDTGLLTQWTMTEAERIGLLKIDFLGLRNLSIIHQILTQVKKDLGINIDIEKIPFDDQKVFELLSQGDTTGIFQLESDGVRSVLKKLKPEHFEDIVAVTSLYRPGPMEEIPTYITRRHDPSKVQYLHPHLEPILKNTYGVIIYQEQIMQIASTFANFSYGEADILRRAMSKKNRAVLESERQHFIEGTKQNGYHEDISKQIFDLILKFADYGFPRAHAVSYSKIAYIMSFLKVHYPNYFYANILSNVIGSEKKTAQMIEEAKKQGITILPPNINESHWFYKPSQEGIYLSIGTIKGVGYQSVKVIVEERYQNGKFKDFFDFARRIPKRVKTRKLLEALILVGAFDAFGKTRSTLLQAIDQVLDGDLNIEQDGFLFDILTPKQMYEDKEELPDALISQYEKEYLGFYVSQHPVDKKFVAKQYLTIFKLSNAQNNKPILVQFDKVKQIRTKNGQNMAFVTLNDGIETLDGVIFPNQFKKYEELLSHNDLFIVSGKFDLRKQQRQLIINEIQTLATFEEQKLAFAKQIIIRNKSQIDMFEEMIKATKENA

[6] = test system: E. coli Ec113 efflux pump KO; test: microbe, parasite or virus in culture; type: cell-based; conditions: Escherichia coli, read-out: MIC Ec113 efflux pump KO
S. aureus Sa1 ATCC 13709 = test: microbe, parasite or virus in culture; type: cell-based; conditions: Staphylococcus aureus, ATCC13709, read-out: MIC Sa1
[7] = test system: H. influenza Hi3 ATCC 31517; test: organism not typed; type: cell-based; conditions: read-out: MIC Hi3
E. coli Ec1 ATCC 25922 = test: Antibacterial activity assay (MIC), E. coli Ec1; type: cell-based; conditions: Escherichia coli, ATCC25922, read-out: MIC Ec1
[8] = test system: S. aureus Sa26 ATCC 25923; test: Antibacterial activity assay (MIC), S. aureus Sa26; type: cell-based; conditions: Staphylococcus aureus
[9] = test system: E. coli Ec50 efflux pump KO; test: microbe, parasite or virus in culture; type: cell-based; conditions: Escherichia coli, read-out: MIC Ec50 efflux pump KO
[10] = test system: S. aureus Sa2 clinical strain NCIMB 41953, MRSA; test: microbe, parasite or virus in culture; type: cell-based; conditions: Staphylococcus aureus, read-out: MIC Sa2
S. aureus Sa4 NCTC 6571 = test: Antibacterial activity assay (MIC), S. aureus Sa4; type: cell-based; conditions: Staphylococcus aureus, NCTC6571, read-out: MIC Sa4
[11] = test system: H. influenza Hi47 clinical strain, Ampicillin Resistant; test: organism not typed; type: cell-based; conditions: read-out: MIC Hi47
[12] = test system: Methicillin Resistant S. aureus Sa2 (MRSA); test: animal or person; type: in vivo
[13] = Study 3, 50 mg/kg SC BID, sample time 7 h PI
[14] = Study 5, 5 mg/kg IP BID, sample time 24 h PI
[15] = Study 5, 15 mg/kg IP BID, sample time 24 h PI
[16] = Study 5, 50 mg/kg IP BID, sample time 24 h PI
[17] = Study 5, 50 mg/kg SC BID, sample time 24 h PI
[18] = Study 5, 200 mg/kg PO BID, sample time 24 h PI
[19] = Study 6, 50 mg/kg PO BID, sample time 24 h PI
[20] = Study 6, 100 mg/kg PO BID, sample time 24 h PI
[21] = Study 1, 50 mg/kg SC BID, sample time 7 h PI
[22] = Study 2, 50 mg/kg SC BID, sample time 7 h PI
[23] = Study 4, 15 mg/kg SC BID, sample time 24 h PI
[24] = Study 8, 50 mg/kg SC QD, sample time 48 h PI

Q: For CO[C@H]1C[C@H]2C=C[C@H]3[C@H]4O[C@]2(/C(C)=C/[C@@H](C)[C@@H]([C@@H](C)O)OC1=O)[C@@H]3[C@H](O)[C@@H](C)[C@H]4OC(=O)c1ccc[nH]1 [Nargenicin A1, reference compound], which Active [1, 13] is on record?
A: Y

Q: What about the “Log reduction vs. untreated” value [1, 13] of the same compound?
A: −4.52

Q: What about the Active [1, 14] of the same compound?
A: N

Q: And the “Log reduction vs. untreated” value [1, 14]?
A: 0.28

Q: And the Active [1, 15]?
A: N

Q: And the “Log reduction vs. untreated” value [1, 15]?
A: −0.55

Q: What about the Active [1, 16] of the same compound?
A: Y

Q: What about the “Log reduction vs. untreated” value [1, 16] of the same compound?
A: −5.40

Q: What about the Active [1, 17] of the same compound?
A: Y

Q: What about the “Log reduction vs. untreated” value [1, 17] of the same compound?
A: −3.28

Q: And the Active [1, 18]?
A: Y

Q: And the “Log reduction vs. untreated” value [1, 18]?
A: −4.47

Q: And the Active [1, 19]?
A: Y

Q: And the “Log reduction vs. untreated” value [1, 19]?
A: −2.02

Q: What about the Active [1, 20] of the same compound?
A: Y

Q: What about the “Log reduction vs. untreated” value [1, 20] of the same compound?
A: −4.06

Q: What about the Active ([2]; 50 mg/kg IP BID) of the same compound?
A: Y

Q: What about the “Log reduction vs. untreated” value ([2]; 50 mg/kg IP BID) of the same compound?
A: −3.13

Q: And the Active ([2]; 50 mg/kg PO BID)?
A: N

Q: What about the “Log reduction vs. untreated” value ([2]; 50 mg/kg PO BID) of the same compound?
A: −1.11

Q: What about the MIC [3] of the same compound?
A: 32 µg/mL (≈ 62.1 µM)

Q: What about the IC50 (DNA III Polymerase E) of the same compound?
A: 1.94 to 1940 nM

Q: And the MIC [4]?
A: 32 µg/mL (≈ 62.1 µM)

Q: What about the IC50 [5] of the same compound?
A: 1.94 to 1940 nM

Q: What about the MIC [6] of the same compound?
A: ≤ 0.06 µg/mL

Q: And the MIC (S. aureus Sa1 ATCC 13709)?
A: 0.125 µg/mL (≈ 0.242 µM)

Q: And the MIC [7]?
A: 64 µg/mL (≈ 124 µM)

Q: And the MIC (E. coli Ec1 ATCC 25922)?
A: > 64 µg/mL

Q: What about the MIC ([8]; ATCC25923, read-out: MIC Sa26) of the same compound?
A: 0.25 µg/mL (≈ 0.485 µM)

Q: And the MIC ([8]; ATCC25923, read-out: MIC Sa26 + 10% SH)?
A: 0.5 µg/mL

Q: And the MIC ([8]; ATCC25923, read-out: MIC Sa26 + 50% SH)?
A: 0.5 µg/mL

Q: And the MIC [9]?
A: 2 µg/mL (≈ 3.88 µM)

Q: And the MIC [10]?
A: 0.125 µg/mL (≈ 0.242 µM)

Q: And the MIC (S. aureus Sa4 NCTC 6571)?
A: ≤ 0.06 µg/mL

Q: What about the MIC [11] of the same compound?
A: 64 µg/mL (≈ 124 µM)

Q: What about the log reduction at 12.5 mg/kg ([12]; Staphylococcus aureus, MRSA, in Mus musculus, po, 24 h, read-out: Log reduction vs. untreated, Study 4, 12.5 mg/kg PO BID, sample 24 h post infection, lung) of the same compound?
A: 0.39

Q: What about the log reduction at 25 mg/kg ([12]; Staphylococcus aureus, MRSA, in Mus musculus, po, 24 h, read-out: Log reduction vs. untreated, Study 4, 25 mg/kg PO BID, sample 24 h post infection, lung) of the same compound?
A: 2.17

Q: And the log reduction at 50 mg/kg ([12]; Staphylococcus aureus, MRSA, in Mus musculus, po, 24 h, read-out: Log reduction vs. untreated, Study 4, 50 mg/kg PO BID, sample 24 h post infection, lung)?
A: 2.57

Q: And the Active ([12]; Study 4, 12.5 mg/kg PO BID, sample 24 h post infection, lung)?
A: N

Q: And the Active ([12]; Study 4, 25 mg/kg PO BID, sample 24 h post infection, lung)?
A: Y

Q: What about the Active ([12]; Study 4, 50 mg/kg PO BID, sample 24 h post infection, lung) of the same compound?
A: Y

Q: Which Active [1, 21] does the source give for CN[C@H](CC(C)C)C(=O)N[C@H]1C(=O)N[C@@H](CC(N)=O)C(=O)N[C@H]2C(=O)N[C@H]3C(=O)N[C@H](C(=O)N[C@H](C(=O)O)c4cc(O)cc(O)c4-c4cc3ccc4O)[C@H](O)c3ccc(c(Cl)c3)Oc3cc2cc(c3O[C@@H]2O[C@H](CO)[C@@H](O)[C@H](O)[C@H]2O[C@H]2C[C@](C)(N)[C@H](O)[C@H](C)O2)Oc2ccc(cc2Cl)[C@H]1O [Vancomycin] here?
A: Y

Q: What about the “Log reduction vs. untreated” value [1, 21] of the same compound?
A: −4.01

Q: What about the Active [1, 22] of the same compound?
A: Y

Q: And the “Log reduction vs. untreated” value [1, 22]?
A: −2.57

Q: And the Active [1, 13]?
A: Y

Q: And the “Log reduction vs. untreated” value [1, 13]?
A: −1.52

Q: What about the Active [1, 23] of the same compound?
A: Y

Q: And the “Log reduction vs. untreated” value [1, 23]?
A: −3.96

Q: What about the Active [1, 17] of the same compound?
A: Y

Q: And the “Log reduction vs. untreated” value [1, 17]?
A: −4.27

Q: What about the Active [1, 24] of the same compound?
A: Y

Q: What about the “Log reduction vs. untreated” value [1, 24] of the same compound?
A: −3.2

Q: And the Active ([2]; 50 mg/kg SC BID)?
A: Y

Q: What about the “Log reduction vs. untreated” value ([2]; 50 mg/kg SC BID) of the same compound?
A: −3.59

Q: And the log reduction at 50 mg/kg ([12]; Staphylococcus aureus, MRSA, in Mus musculus, sc, 24 h, read-out: Log reduction vs. untreated)?
A: 2

Q: What about the Active ([12]; Study 1, 50 mg/kg SC BID, sample 24 h post infection, lung) of the same compound?
A: Y
